Converted amounts (≈) assume the structure as drawn. “Also recorded” adds a separate entry of the source. Bounds are passed on as bounds.

For orientation: IC50 means the midpoint of a concentration-inhibition curve.

For series [1], the system named is S. epidermidis RP62A (ATCC 35984) biofilm formation. Put plainly: Biofilm inhibition assay (WGA488 staining of formed biofilm). The series is classed as cell-based, Staphylococcus epidermidis. To be noted: for Selectivity Index (MICPlanktonic/MBICBiofilm): S. epidermidis RP62A, MIC planktonic / MBIC biofilm; for MBIC S. epidermidis RP62A (ATCC 35984): lowest concentration causing >98% inhibition of biofilm formation, two independent trials in quadruplicates. The text has this: (§1) All seven compounds were subjected to a panel of bioactivity assays to assess their effects on staphylococcal pathogens and mammalian cells (Table 2). […] This fluorescent stain specifically binds to sialic acid and the N-acetylglucosaminyl residues of the biofilm. […] Growth inhibition in the microbial pathogens was quantified by monitoring the conversion of resazurin to the fluorescent resorufin product.
(§2) The biofilm inhibition assay was done according to the method of Skogman et al. (2012). […] A single colony from the CRA plate was transferred in 50 mL trypticasein soy broth supplemented with glucose (TSBg) and grown overnight at 35 °C, 150 rpm. The turbidity of the culture was adjusted to match the 0.5 McFarland standard (1 × 10^8 cells/mL) and diluted 100-fold prior to inoculation in a 96-well plate. […] TSBg served as the negative control, and positive controls were chloramphenicol (Sigma-Aldrich) for planktonic cells and dispersin B (Kane Biotech) for biofilms. Dispersin B is a 40 kDa glycoside hydrolase which dissolves mature bacterial biofilms. The plates were incubated for 20 h at 37 °C without shaking to facilitate biofilm formation. At the end of the incubation period, the planktonic suspension was transferred to another 96-well plate to assess cell viability. A 20 µL-aliquot of 0.02% resazurin was added to each well and incubated for 30 min at 37 °C, 150 rpm. Fluorescence was measured using a 530 nm excitation filter and a 590 nm emission filter. To quantify the formed biofilm, 100 µL-aliquot of wheat germ agglutinin Alexa Fluor 488 (WGA488) probe (50 µg/mL) was added to each well of the original plate and incubated in the dark at 4 °C for 5 h. At the end of incubation, the plate was washed with sterile PBS (3×) and air-dried at room temperature to remove the unbound WGA488 probe. Bound stain to the biofilm was dissolved in 33% glacial acetic acid and quantified by fluorescence measurement at 485 nm/420 nm excitation filters, and 528 nm/520 nm emission filters. […] This was done in two independent trials with four independent replicates.

Series [2] concerns planktonic S. epidermidis RP62A (ATCC 35984). Briefly: Planktonic cell viability, resazurin (from biofilm assay plate). The series is classed as cell-based, Staphylococcus epidermidis. Conditions: for MIC: Staphylococcus epidermidis, ATCC35984, planktonic cells, lowest concentration with >98% growth inhibition; for bioactivity against microbial pathogens or mammalian cells (in words): statement covers the whole panel of Table 2 (staphylococcal pathogens and MDCK cells).
Text: as §1, §2

The test system of series [3] is MDCK NBL-2 (ATCC CCL-34) cells. Put plainly: cells. Conditions: for IC50: Canis lupus familiaris, MDCK, 72 h, read-out: IC50 MDCK NBL-2 (ATCC CCL-34).
Text: as §1
The mammalian antiproliferative assay was done according to Lacerna et al. (2019) and modified from the method of Mossman (1983). […] At 72 h post-incubation, the cells were treated with MTT and the absorbance at 570 nm was read. The IC50 was calculated using GraphPad Prism 5 based on a 4-point sigmoidal non-linear regression analysis of cell viability vs. log concentration of the inhibitor. The assay was done in two independent trials with four independent replicates.

In series [4] the test system is Methicillin-resistant S. aureus (ATCC 43300). Briefly: Antimicrobial microdilution assay (resazurin). To be noted: Staphylococcus aureus; planktonic; >98% growth inhibition; 24 h; read-out: MIC Methicillin-Resistant S. aureus (ATCC 43,300). The series is classed as cell-based. The method, then:
as §1
(§3) After 24 h of incubation, 0.02% resazurin (20 µL) was added to each well, and the fluorescence was measured at 530 nm excitation and 590 nm emission. MIC is the lowest concentration at which there was no reduction of the rezasurin dye, equivalent to 98% inhibition of microbial growth. Assays were done in two independent trials with four independent replicates.

The subject of the next series is S. aureus (ATCC 6538). Briefly: Antimicrobial microdilution assay (resazurin). The format is cell-based. To be noted: Staphylococcus aureus, ATCC6538; planktonic; >98% growth inhibition; 24 h. As for the experimental part:
as §1, §3
(In general: Dilution methods test growth across graded concentrations, often in twofold steps.)

For the molecule `CCCCCC1OC1C(O)CCCCCCCCCC(=O)O` (stereo not shown) [Compound 1, 11-hydroxy-12,13-epoxy-octadecanoic acid], in series [1], the “inhibition of biofilm formation in S. epidermidis (in words)” value (“inhibition of biofilm formation” below) was “inhibited biofilm formation”, the “Selectivity Index (MICPlanktonic/MBICBiofilm)” value is listed as about 4 and the “MBIC S. epidermidis RP62A (ATCC 35984)” value worked out at 32 µg/mL. Moreover, the MIC in series [2] was 128 µg/mL (≈ 407 µM). Besides, in series [3], the concentration for half-maximal inhibition (IC50) was determined as 61.7 µg/mL (≈ 196 µM). In addition, the MIC in series [4] is over 128 µg/mL. In addition, the MIC in the series on S. aureus (ATCC 6538) is over 128 µg/mL.

In the case of `CCCCC/C=C/C(=O)CCCCCCCC(=O)O` [Compound 2, (E)-9-oxohexadec-10-enoic acid], in series [1], the “inhibition of biofilm formation” value was “inhibited biofilm formation”. Besides, the “Selectivity Index (MICPlanktonic/MBICBiofilm)” value in series [1] is on record as about 1. The MIC (in series [2]; in series [4]; against S. aureus (ATCC 6538)) was over 128 µg/mL throughout. Besides, the IC50 in series [3] was 33 µg/mL (≈ 123 µM).

As to `CCCCC/C=C/C(=O)CCCCCCCCCC(=O)O` [Compound 3, (E)-11-oxooctadec-12-enoic acid], in series [1], the “inhibition of biofilm formation” value is reported as “inhibited biofilm formation; also recorded: potent but non-selective activity”, the “Selectivity Index (MICPlanktonic/MBICBiofilm)” value is recorded as about 1 and the “MBIC S. epidermidis RP62A (ATCC 35984)” value stood at 16 µg/mL. Further, in series [2], the “antimicrobial activity against planktonic S. epidermidis (in words)” value is on record as “showed antimicrobial activity” and the MIC amounted to 16 µg/mL (≈ 54 µM). Besides, in series [3], the “cytotoxicity / antiproliferative action in mammalian MDCK cells (in words)” value (shortened to “cytotoxicity / antiproliferative action”) is recorded as “demonstrated cytotoxicity” and the half-maximal inhibitory concentration (IC50) was 13.6 µg/mL (≈ 45.9 µM). Further, in series [4], the MIC was over 128 µg/mL. This molecule also displayed an MIC with S. aureus (ATCC 6538) of over 128 µg/mL.

As to `CCCCCCCCCCCCCCCC(=O)O` [Compound 4, palmitic acid], in series [1], the “Selectivity Index (MICPlanktonic/MBICBiofilm)” value is on record as about 1 and the “MBIC S. epidermidis RP62A (ATCC 35984)” value is over 128 µg/mL. In series [2], the MIC is over 128 µg/mL and the “bioactivity against microbial pathogens or mammalian cells (in words)” value is recorded as “did not show any significant bioactivity”. Further, in series [3], the “cytotoxicity / antiproliferative action” value is listed as “cytotoxic activity” and the IC50 was over 128 µg/mL. Further, in series [4], the MIC is over 128 µg/mL. This molecule also registered an MIC in the series with S. aureus (ATCC 6538) of over 128 µg/mL.

As to `CCCCCCCCCCCCCCCCCC(=O)O` [Compound 5, stearic acid], in series [1], the “Selectivity Index (MICPlanktonic/MBICBiofilm)” value is given as about 1 and the “MBIC S. epidermidis RP62A (ATCC 35984)” value is over 128 µg/mL. In addition, in series [2], the MIC is over 128 µg/mL and the “bioactivity against microbial pathogens or mammalian cells (in words)” value is on record as “did not show any significant bioactivity”. In addition, the IC50 in series [3] is over 128 µg/mL. In series [4], the MIC is over 128 µg/mL. Moreover, the MIC with S. aureus (ATCC 6538) is over 128 µg/mL.

As to `CCCCC[C@@H]1O[C@H]1CCCCCCCCCCC(=O)O` [Compound 6, trans-12,13-epoxy-octadecanoic acid], in series [1], the “inhibition of biofilm formation” value is listed as “inhibited biofilm formation”, the “Selectivity Index (MICPlanktonic/MBICBiofilm)” value was over 8 and the “MBIC S. epidermidis RP62A (ATCC 35984)” value came to 16 µg/mL. This molecule also yielded an MIC in series [2] of over 128 µg/mL. Further, in series [3], the “cytotoxicity / antiproliferative action” value is listed as “no antiproliferative action” and the 50% inhibitory concentration (IC50) is over 128 µg/mL. Further, in series [4], the MIC was over 128 µg/mL. This molecule also gave an MIC in the series on S. aureus (ATCC 6538) of over 128 µg/mL.

`CCCCC/C=C\CCCCCCCCCCC(=O)O` [Compound 7, 12(Z)-octadecenoic acid]: in series [1], the “MBIC S. epidermidis RP62A (ATCC 35984)” value is over 128 µg/mL.

For the molecule `O=C(N[C@H](CO)[C@H](O)c1ccc([N+](=O)[O-])cc1)C(Cl)Cl` [chloramphenicol], in series [2], the MIC came to 8 µg/mL (≈ 24.8 µM).

For `Cc1onc(-c2ccccc2)c1C(=O)N[C@@H]1C(=O)N2[C@@H]1SC(C)(C)[C@@H]2C(=O)O` [oxacillin], the MIC stood at 8 µg/mL (≈ 19.9 µM) in series [4] and 0.5 µg/mL (≈ 1.25 µM) with S. aureus (ATCC 6538).

The values above are taken from PMC7766104, “Inhibition of Biofilm Formation by Modified Oxylipins from the Shipworm Symbiont Teredinibacter turnerae” (Marine Drugs, 2020).
